{"source": "patent US9714243B2", "about": "“4-pyridinonetriazine derivatives as HIV integrase inhibitors” (Merck Sharp & Dohme Corp., priority 2012, dated 2017)", "system": "HIV-1 (NL4-3 strain)", "test": "Assay for inhibition of HIV replication (ViKinG; infected MT4-GFP cells)", "type": "cell-based", "how_it_was_run": "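MT4-GFP cells infected with NL4-3 at low MOI for 24 h, washed, then exposed to serially diluted compound (0.4% DMSO) in RPMI. GFP+ cells counted at 24 and 48 h; R0 = 48 h/24 h ratio, inhibition normalised to DMSO and triple-drug controls, IC50 from 4-parameter fit.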", "key": {"[1]": {"details": "Human immunodeficiency virus 1, NL43, MT4-GFP cells infected with HIV-1 NL4-3, 0% normal human serum (NHS), read-out: ViKinG IP (nM) with 0% NHS"}, "[2]": {"details": "Human immunodeficiency virus 1, NL43, MT4-GFP cells infected with HIV-1 NL4-3, 100% normal human serum (NHS), read-out: ViKinG IP (nM) with 100% NHS"}, "[3]": {"details": "MT4-GFP cells infected with HIV-1 NL4-3, 100% normal human serum (NHS), read-out: ViKinG IP (nM) with 100% NHS"}, "[4]": {"details": "MT4-GFP cells infected with HIV-1 NL4-3, 0% normal human serum (NHS), read-out: ViKinG IP (nM) with 0% NHS"}, "[5]": {"details": "Human immunodeficiency virus 1, NL43, MT4-GFP cells infected with HIV-1 NL4-3, 10% normal human serum (NHS), read-out: ViKinG IP (nM) with 10% NHS"}}, "note": "Like-named read-outs stand apart in the source and are kept apart here."}
{"smiles": "CN1C(=O)c2c(O)c(=O)c(C(=O)NCc3ccc(F)cc3F)cn2N(C)[C@]12CC[C@@H]1C[C@@H]12", "note": "[Compound 186]", "values": [{"measurement": "IC50", "setting": "[1]", "value": 1.74, "unit": "nM"}, {"measurement": "IC50", "setting": "[2]", "value": 283, "unit": "nM"}]}
{"smiles": "CN1C(=O)c2c(O)c(=O)c(C(=O)NCc3ccc(F)cc3F)cn2N(C)[C@@]12CC[C@@H]1C[C@@H]12", "note": "[Compound 187]", "values": [{"measurement": "IC50", "setting": "[1]", "value": 3.64, "unit": "nM"}, {"measurement": "IC50", "setting": "[2]", "value": 502, "unit": "nM"}]}
{"smiles": "CCN1C(=O)c2c(O)c(=O)c(C(=O)NCc3ccc(F)cc3F)cn2N(C)C12CC[C@@H]1C[C@@H]12", "note": "(some centres unmarked) [Compound 188]", "values": [{"measurement": "IC50", "setting": "[1]", "value": 1.49, "unit": "nM"}, {"measurement": "IC50", "setting": "[2]", "value": 406, "unit": "nM"}]}
{"smiles": "CCN1C(=O)c2c(O)c(=O)c(C(=O)NCc3ccc(F)cc3F)cn2N(C)[C@@]12CC[C@@H]1C[C@@H]12", "note": "[Compound 189]", "values": [{"measurement": "IC50", "setting": "[1]", "value": 3.62, "unit": "nM"}, {"measurement": "IC50", "setting": "[2]", "value": 626, "unit": "nM"}]}
{"smiles": "COCCN1C(=O)c2c(O)c(=O)c(C(=O)NCc3ccc(F)cc3F)cn2N(C)C12CC[C@@H]1C[C@@H]12", "note": "(some centres unmarked) [Compound 190]", "values": [{"measurement": "IC50", "setting": "[1]", "value": 29, "unit": "nM"}, {"measurement": "IC50", "setting": "[2]", "value": 2910, "unit": "nM"}]}
{"smiles": "CCOC1CCC2(CC1)N(CC)C(=O)c1c(O)c(=O)c(C(=O)NCc3ccc(F)cc3F)cn1N2C", "note": "(centres unmarked) [Compound 191]", "values": [{"measurement": "IC50", "setting": "[1]", "value": 6.74, "unit": "nM"}, {"measurement": "IC50", "setting": "[3]", "value": 239, "unit": "nM"}]}
{"smiles": "CCOC1CCC2(CC1)N(CC)C(=O)c1c(O)c(=O)c(C(=O)NCc3ccc(F)cc3F)cn1N2C", "note": "(centres unmarked) [Compound 192]", "values": [{"measurement": "IC50", "setting": "[4]", "value": 3.66, "unit": "nM"}, {"measurement": "IC50", "setting": "[3]", "value": 67.2, "unit": "nM"}]}
{"smiles": "CCCOC1CCC2(CC1)N(CC)C(=O)c1c(O)c(=O)c(C(=O)NCc3ccc(F)cc3F)cn1N2C", "note": "(centres unmarked) [Compound 193]", "values": [{"measurement": "IC50", "setting": "[4]", "value": 8.24, "unit": "nM"}, {"measurement": "IC50", "setting": "[3]", "value": 84.8, "unit": "nM"}]}
{"smiles": "CCCOC1CCC2(CC1)N(CC)C(=O)c1c(O)c(=O)c(C(=O)NCc3ccc(F)cc3F)cn1N2C", "note": "(centres unmarked) [Compound 194]", "values": [{"measurement": "IC50", "setting": "[4]", "value": 25, "unit": "nM"}, {"measurement": "IC50", "setting": "[3]", "value": 400, "unit": "nM"}]}
{"smiles": "CN1C(=O)c2c(O)c(=O)c(-c3nnc(Cc4ccc(F)cc4F)s3)cn2N(C)C12CC[C@@H]1C[C@@]12CO", "note": "(some centres unmarked) [Compound 195]", "values": [{"measurement": "IC50", "setting": "[1]", "value": 2.02, "unit": "nM"}, {"measurement": "IC50", "setting": "[3]", "value": 190, "unit": "nM"}]}
{"smiles": "CN1n2cc(-c3nnc(Cc4ccc(F)cc4F)s3)c(=O)c(O)c2C(=O)NC12CC[C@@H]1C[C@@H]12", "note": "(some centres unmarked) [Compound 196]", "values": [{"measurement": "IC50", "setting": "[1]", "value": 1.61, "unit": "nM"}, {"measurement": "IC50", "setting": "[2]", "value": 307, "unit": "nM"}]}
{"smiles": "COC(=O)[C@]12C[C@H]1CCC21N(C)C(=O)c2c(O)c(=O)c(-c3nnc(C(C)c4ccc(F)cc4F)s3)cn2N1C", "note": "(some centres unmarked) [Compound 206]", "values": [{"measurement": "IC50", "setting": "[1]", "value": 15.4, "unit": "nM"}, {"measurement": "IC50", "setting": "[5]", "value": 62.4, "unit": "nM"}]}
{"smiles": "O=C1NC2(CCC2)Cn2cc(-c3nnc(Cc4ccc(F)cc4F)s3)c(=O)c(O)c21", "note": "[Compound 210]", "values": [{"measurement": "IC50", "setting": "[1]", "value": 4.11, "unit": "nM"}, {"measurement": "IC50", "setting": "[5]", "value": 68.4, "unit": "nM"}]}
{"smiles": "CCN1C(=O)c2c(O)c(=O)c(-c3nnc(Cc4ccc(F)cc4F)s3)cn2CC12CCC2", "note": "[Compound 211]", "values": [{"measurement": "IC50", "setting": "[1]", "value": 10.3, "unit": "nM"}, {"measurement": "IC50", "setting": "[2]", "value": 2800, "unit": "nM"}]}
{"smiles": "COC1CCC2(CC1)Cn1cc(-c3nnc(Cc4ccc(F)cc4F)s3)c(=O)c(O)c1C(=O)N2C", "note": "(centres unmarked) [Compound 212]", "values": [{"measurement": "IC50", "setting": "[1]", "value": 3.49, "unit": "nM"}, {"measurement": "IC50", "setting": "[3]", "value": 90.7, "unit": "nM"}]}
{"smiles": "COC1CCC2(CC1)Cn1cc(-c3nnc(Cc4ccc(F)cc4F)s3)c(=O)c(O)c1C(=O)N2C", "note": "(centres unmarked) [Compound 213]", "values": [{"measurement": "IC50", "setting": "[4]", "value": 5.89, "unit": "nM"}, {"measurement": "IC50", "setting": "[3]", "value": 35.8, "unit": "nM"}]}
{"smiles": "COCCN1C(=O)c2c(O)c(=O)c(-c3cn(Cc4ccc(F)cc4F)nn3)cn2CC12CCC2", "note": "[Compound 214]", "values": [{"measurement": "IC50", "setting": "[1]", "value": 24.4, "unit": "nM"}, {"measurement": "IC50", "setting": "[2]", "value": 205, "unit": "nM"}]}
{"smiles": "CN1C(=O)c2c(O)c(=O)c(-c3cn(Cc4ccc(F)cc4F)nn3)cn2CC12CCC2", "note": "[Compound 215]", "values": [{"measurement": "IC50", "setting": "[1]", "value": 9.93, "unit": "nM"}, {"measurement": "IC50", "setting": "[2]", "value": 76.1, "unit": "nM"}]}
{"smiles": "CCN1C(=O)c2c(O)c(=O)c(-c3cn(Cc4ccc(F)cc4F)nn3)cn2CC12CCC2", "note": "[Compound 216]", "values": [{"measurement": "IC50", "setting": "[1]", "value": 13.2, "unit": "nM"}, {"measurement": "IC50", "setting": "[2]", "value": 332, "unit": "nM"}]}
{"smiles": "CCN1C(=O)c2c(O)c(=O)c(-c3nnc(Cc4ccc(F)cc4)s3)cn2N(C)C12CCCCC2", "note": "[Compound 222]", "values": [{"measurement": "IC50", "setting": "[1]", "value": 1.28, "unit": "nM"}]}
{"smiles": "CCN1C(=O)c2c(O)c(=O)c(-c3nnc(Cc4ccc(F)cc4)s3)cn2N(C)C12CC(C(=O)OC)C2", "note": "(centres unmarked) [Compound 224]", "values": [{"measurement": "IC50", "setting": "[5]", "value": 49.3, "unit": "nM"}, {"measurement": "IC50", "setting": "[2]", "value": 361, "unit": "nM"}]}
